Where no end group is shown, it is not given here.
Tests used:
[1] = system: serpin gene in B. longum NCC 2705; test: Sugar induction of serpin gene transcription in Biolector culture (qRT-PCR); type: cell-based; conditions: 180 min sugar induction at 0.1%, relative to growth in only MRSc (FIG. 1)
Procedure: FIG. 1—Relative transcription level of serpin gene in B. longum NCC 2705 after 180 min sugar induction at a concentration of 0.1%. The bars indicate the relative amounts of serpin mRNAs for the specific samples comparing to that of growth in only MRSc. Black bars represent significant induction. The standard deviation was obtained from at least 2 different experiments (95% confidence interval).
BL NCC 2705 (B. longum strain CNCM I-2618) was grown in Biolector (growth conditions—anaerobic, 37° C., MRS+5 mM L-cysteine (MRSc).
48-well microtiter plate with pH sensor and dissolved oxygen (DO) sensor were used to culture the strains in Biolector (m2p-labs Aachen, Germany). It was continuously shaken to prevent bacteria aggregation and measurements were performed every 15 min. Plates were sealed with a gas permeable film and an anaerobe-chamber provides well-defined anaerobic gassing conditions. Fermentation parameters like biomass, pH and dissolved oxygen (DO) were monitored online throughout the entire growth using the BioLection HMI software. Growth parameters were:
The following carbohydrates were added to the cultures individually:
B. longum NCC 2705 was then further cultivated in the same conditions for 180 min, after which samples (500 μl) were collected and serpin mRNA levels measured. Every fermentation was performed at least in duplicate.
Total RNA isolation—500 μl of bacterial cultures were suspended in 1 ml of RNA protect bacteria reagent (Qiagen, Germany) and briefly centrifuged 10 min at 5000 g to harvest cells for total RNA extraction.
Total RNA was extracted using the RNeasy total RNA Mini kit (Qiagen, Germany, Ca. No. 74101) with protease K (Qiagen, Germany, Ca. No. 19131) and further treated using RNase-free DNase set (Qiagen, Germany, Ca. No. 79254). Total RNA was then eluted in 40 μl water. […]
mRNA fold expression analysis method—The Pfaffl method was used to calculate relative transcription changes (Pfaffl, 2012, Martin Filion, Hg., Quantitative real-time PCR in Applied Microbiology, 53-62) for which the equation is shown in Equation 1: […]

BL NCC 2705 serpin = test: Lactose dose response in 10 L fermenter, serpin mRNA fold induction; type: cell-based, B. longum; conditions: addition of 0.1% lactose, among 0.05%, 1%, 2% and 2.75%, glucose added to 5.5% total sugar, base 8 h culture (FIG. 2)
Procedure: FIG. 2—Serpin mRNA level of B. longum NCC 2705 fermented in different growth medium after 8 h, 12 h and 16 h. Different proportions of glucose was replaced by lactose and fructose as shown in the y-axis and the total amount of sugar percentage was kept stable at 5.5%. The values were calculated based on B. longum NCC 2705 growth after 8 h in 5.5% glucose. Black bars represent significant induction. In order to optimize the effect of lactose on induction of BL NCC 2705 serpin, a dose response was performed. The fermentation was performed in a 10 L Biostar B Plus fermenter with MRSc medium, supplemented with 0.05% cysteine as base, and different concentration of lactose (0.05%, 0.1%, 1%, 2% and 2.75%) were added to the medium. Glucose was supplemented to the different recipes to reach a final total amount of 5.5% of total sugar. Serpin mRNA fold induction was calculated using the 8 h MRSc grown BL NCC 2705 culture as a base (FIG. 2).

elastases and proteinase = conditions: cited from earlier work
transglutaminase 2 (TG2) = target: T1, transglutaminase 2 (TG2) (Homo sapiens, UniProt P21980); conditions: in vitro; inhibits deamidation of the 33-mer gliadin peptide; cited from earlier work
T1 sequence (P21980 1-687): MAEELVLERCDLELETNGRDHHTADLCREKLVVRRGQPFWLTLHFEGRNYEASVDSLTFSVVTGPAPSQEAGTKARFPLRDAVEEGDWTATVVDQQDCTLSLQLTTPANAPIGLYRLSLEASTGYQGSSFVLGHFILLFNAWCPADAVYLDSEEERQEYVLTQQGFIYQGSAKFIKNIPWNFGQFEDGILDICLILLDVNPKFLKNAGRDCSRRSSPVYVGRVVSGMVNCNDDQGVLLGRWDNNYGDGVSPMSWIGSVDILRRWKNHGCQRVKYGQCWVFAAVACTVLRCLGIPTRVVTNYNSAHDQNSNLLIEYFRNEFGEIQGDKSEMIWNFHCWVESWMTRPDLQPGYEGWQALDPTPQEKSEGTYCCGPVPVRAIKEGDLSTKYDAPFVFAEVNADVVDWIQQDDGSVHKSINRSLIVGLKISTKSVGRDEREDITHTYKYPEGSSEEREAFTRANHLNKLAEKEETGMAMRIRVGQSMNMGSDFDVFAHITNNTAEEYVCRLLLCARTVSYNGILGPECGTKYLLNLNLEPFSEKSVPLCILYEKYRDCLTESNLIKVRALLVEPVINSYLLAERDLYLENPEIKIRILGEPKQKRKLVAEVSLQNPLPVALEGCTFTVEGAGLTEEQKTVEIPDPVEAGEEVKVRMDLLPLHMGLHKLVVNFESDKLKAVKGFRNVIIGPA

[2] = system: mouse model of gluten sensitivity; conditions: elafin delivered by recombinant Lactococcus lactis; cited from earlier work

Compound	serpin mRNA levels of B. longum NCC 2705 [1]	serpin mRNA level at end of fermentation (16 h) (BL NCC 2705 serpin)	inhibitory capacity against various forms of elastases and proteinase (elastases and proteinase)	inhibition of transglutaminase 2 (TG2) (transglutaminase 2 (TG2))	gluten-induced pathology and intestine inflammation [2]
O=C(CO)[C@@H](O)[C@H](O)[C@H](O)CO [fructose, Fructose]	increase	–	–	–	–
OC[C@H]1O[C@@H](O[C@H]2[C@H](O)[C@@H](O)C(O)O[C@@H]2CO)[C@H](O)[C@@H](O)[C@H]1O (stereo partly shown) [lactose, Lactose]	increase	highest	–	–	–
OC[C@H]1O[C@H](OC[C@H]2O[C@H](O[C@]3(CO)O[C@H](CO)[C@@H](O)[C@@H]3O)[C@H](O)[C@@H](O)[C@@H]2O)[C@H](O)[C@@H](O)[C@H]1O [raffinose, Raffinose]	increase	–	–	–	–
elafin: human serine protease inhibitor (AQEPVKGPVSTKPGSCPIILIRCAMLNPPNRCLKDTDCPGIKKCCEGSCGMACFVPQ; ends and bridges not checked; cysteine pairing not given here; UniProt P19957 61-117, looked up)	–	–	potent inhibitory capacity	moderately inhibits	reduce gluten-induced pathology and normalise intestine inflammation

Source: patent publication US11590181B2, “Serpin production” (SOCIETE DES PRODUITS NESTLE S.A., priority 2017, dated 2023)
